Results: publication PMC4721062, “Oxadiazole-2-oxides may have other functional targets, in addition to SjTGR, through which they cause mortality in Schistosoma japonicum” (Parasites & Vectors, 2016)
pIC50: −log10 of the molar value. “Also recorded” adds a separate entry of the source. Read-outs that look alike come from different tables or passages of the source.

Assays:
[1] = molecular target: T1, recombinant SjTGR (Schistosoma japonicum, UniProt B5THG7); assay: Inhibition of TrxR activity of recombinant SjTGR (DTNB assay); format: biochemical; settings: 50 nM SjTGR, 1 mM NADPH, 15 min preincubation, DTNB reduction; for pIC50: read-out: IC50 of SjTGR
T1 sequence (B5THG7 1-596): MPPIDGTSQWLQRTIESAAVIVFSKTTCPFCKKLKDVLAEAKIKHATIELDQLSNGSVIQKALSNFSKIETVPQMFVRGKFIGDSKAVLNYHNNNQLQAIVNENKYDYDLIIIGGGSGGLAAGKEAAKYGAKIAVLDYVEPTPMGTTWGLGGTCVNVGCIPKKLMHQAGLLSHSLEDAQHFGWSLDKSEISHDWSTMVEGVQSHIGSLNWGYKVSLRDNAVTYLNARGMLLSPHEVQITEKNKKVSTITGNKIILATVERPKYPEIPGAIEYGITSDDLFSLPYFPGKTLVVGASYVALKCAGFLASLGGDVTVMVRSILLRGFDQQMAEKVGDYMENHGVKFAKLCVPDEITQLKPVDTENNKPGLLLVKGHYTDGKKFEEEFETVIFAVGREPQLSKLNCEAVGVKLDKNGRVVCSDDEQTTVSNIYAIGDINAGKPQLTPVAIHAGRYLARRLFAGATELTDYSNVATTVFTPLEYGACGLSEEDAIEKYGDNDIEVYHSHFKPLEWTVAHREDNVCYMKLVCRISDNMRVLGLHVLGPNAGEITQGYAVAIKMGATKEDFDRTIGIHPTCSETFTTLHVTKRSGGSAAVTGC
Experimental: The purified recombinant SjTGR proteins were produced according to the method described by Song et al.. The inhibition of TrxR activity by the recombinant SjTGR was performed as reported by Rai et al.. Briefly, 50 nM SjTGR and 1 mM NADPH were incubated with different concentrations of oxadiazole-2-oxides (2, 4, 6, 10, 20 μM) for 15 min at room temperature. Then, potassium phosphate buffer (pH 7.4) containing 10 mM EDTA, 100 μM NADPH, and 3 mM DTNB was added to start the reaction. The increase of absorbance at 412 nm was monitored during the first 2 min. All assays were done in triplicate.
50 nM SjTGR and 1 mM NADPH were incubated with different concentrations of oxadiazole-2-oxides (2, 4, 6, 10, 20 μM) for 15 min at room temperature. Then, potassium phosphate buffer (pH 7.4) containing 10 mM EDTA, 100 μM NADPH, 3 mM DTNB was added to start the reaction. The increase in absorbance at 412 nm was monitored during the first 2 min. All assays were done in triplicate. Results shown are the mean ± SD (n = 3)

[2] = test system: adult S. japonicum; assay: microbe, parasite or virus in culture; format: cell-based; settings: for Killing activity 24hr / Killing activity 48hr / Killing activity 72hr: adult worms; for killing at 25 µM / killing at 50 µM / killing at 100 µM / mortality at 25 µM: Schistosoma japonicum; for mortality at 25 µM: read-out: Mortality of adult worms
Description: ICR mice (20–22 g), were obtained from the Shanghai Sub-Center of Experimental Animals, Chinese Academy of Sciences. They were maintained at the Department of Experimental Animals, Jiangsu Institute of Parasitic Diseases. To infect each mouse, its abdominal skin was exposed to 50 S. japonica cercariae. All of the mice were executed to collect S. japonica adult worms, through portal vein perfusion, 35 days post-infection. The adult S. japonica collected were washed with RPMI 1640 medium and then kept in RPMI 1640 medium (pH 7.5) with HEPES 20 mM, penicillin (100 IU/mL), streptomycin ([…]) and 10 % fetal bovine serum. Then, two pairs of adult worms were transferred into each well of a 24-well culture plate, with 2 mL of the same medium. The worms were cultured at 37 °C in a humid atmosphere with 5 % CO2.
Adult worms were cultured in a 24-well culture plate for 30–60 min at 37 °C, in a humid atmosphere with 5 % CO2. Then, oxadiazole-2-oxides at different concentrations (10, 25, 50, 100 μM) were added. Equal volumes of RPMI 1640 or DMSO were applied as negative controls, while PZQ was applied as a positive control. The adult worm mobility and parasite survival rates were monitored using an inverted phase contrast microscope, at 24, 48 and 72 h. Parasite death was defined as there being no motor activity during 2 min of continuous observation, and morphological and tegumental alterations. All assays were repeated three times.
^b Data collected by visual examination of worm movement and shape; n.e. […] The data presented are the average of three independent experiments.

[3] = test system: juvenile S. japonicum; assay: microbe, parasite or virus in culture; format: cell-based; settings: for Killing activity 24hr / Killing activity 48hr / Killing activity 72hr: juvenile worms; for killing at 2 µM / killing at 5 µM / killing at 50 µM: Schistosoma japonicum
Experimental: Infected Oncomelania hupensis, provided by the Department of Snail Biology, Jiangsu Institute of Parasitic Diseases, were incubated at 25–28 °C, under illumination, for 2 h to hatch S. japonicum cercariae. The cercariae were collected from the water surface with clean cover glass and placed into a centrifuge tube using pre cooled RPMI 1640. Centrifugation was performed for 1 min at 1500 rpm, and then the steps above were repeated. After centrifugation, the supernatant solution was removed. The cercariae at the bottom were washed twice and resuspended with RPMI 1640. Approximately 20–30 cercariae (1 mL of the resuspension medium) were added to one well in a 24-well culture plate. They were incubated overnight at 37 °C with 5 % CO2. The survival rates and number of tails shed were observed under an inverted microscope. Cercariae that had shed their tails were used as juvenile S. japonicum.
20–30 juvenile worms were transferred into each well of a 24-well culture plate, containing 2 mL RPMI 1640 medium, 20 mM HEPES, 100 IU/mL penicillin, […] streptomycin and 10 % fetal bovine serum. Then, oxadiazole-2-oxides (2, 5, 10, and 50 μM), diluted with the RPMI 1640 medium, were added to their allocated wells. The worms in the negative control wells were treated with equal volumes of RPMI 1640 or DMSO and worms treated with AS were observed as positive controls. The juvenile worms’ survival rates were observed under an inverted phase contrast microscope (Leica, Wetzlar, Germany) at 24, 48 and 72 h. Parasite death was defined as an unclear internal structure of the juvenile worms, with incomplete tegument and contents overflowing radially, or unclear internal structure with complete tegument, but having no motor activity during 1 min of continuous observation. All assays were repeated three times.
^b Data collected by visual examination of worm movement and shape; % D = The number of worms dead / The total number of worms observed, and worms dead judged by unclear internal structure of juvenile worms with uncompleted tegument, and contents overflowing radially, or unclear internal structure with complete tegument, but having no motor activity during 1 min of continuous observation. The data presented are the average of three independent experiments.

[4] = 24 h, read-out: Killing activity 24hr
[5] = 48 h, read-out: Killing activity 48hr
[6] = 72 h, read-out: Killing activity 72hr

N#Cc1c(-c2ccc(OCCCOc3ccc(-c4no[n+]([O-])c4C#N)cc3)cc2)no[n+]1[O-] [Compound 21]
IC50 of SjTGR [1]: did not inhibit SjTGR; also recorded: neither did they inhibit the SjTGR activity | pIC50 [1]: < 4.70 | Killing activity 24hr ([2]; 10 μM, 24 h): n.e. | Killing activity 48hr ([2]; 10 μM, 48 h): sluggish | Killing activity 72hr ([2]; 10 μM, 72 h): sluggish | Killing activity 24hr ([2]; 25 μM, 24 h): n.e | Killing activity 48hr ([2]; 25 μM, 48 h): 100%D | Killing activity 72hr ([2]; 25 μM, 72 h): 100%D | Killing activity 24hr ([2]; 50 μM, 24 h): 66.7%D | Killing activity 48hr ([2]; 50 μM, 48 h): 100%D | Killing activity 72hr ([2]; 50 μM, 72 h): 100%D | Killing activity 24hr ([2]; 100 μM, 24 h): 75.0%D | Killing activity 48hr ([2]; 100 μM, 48 h): 100%D | Killing activity 72hr ([2]; 100 μM, 72 h): 100%D | Killing activity 24hr ([3]; 2 μM, 24 h): 22.5%D | Killing activity 48hr ([3]; 2 μM, 48 h): 22.5%D | Killing activity 72hr ([3]; 2 μM, 72 h): 27.5%D | Killing activity 24hr ([3]; 5 μM, 24 h): 26.7%D | Killing activity 48hr ([3]; 5 μM, 48 h): 26.7%D | Killing activity 72hr ([3]; 5 μM, 72 h): 30.0%D | Killing activity 24hr ([3]; 10 μM, 24 h): 30.0%D | Killing activity 48hr ([3]; 10 μM, 48 h): 33.3%D | Killing activity 72hr ([3]; 10 μM, 72 h): 56.7%D | Killing activity 24hr ([3]; 50 μM, 24 h): 33.3%D | Killing activity 48hr ([3]; 50 μM, 48 h): 38.3%D | Killing activity 72hr ([3]; 50 μM, 72 h): 67.0%D

CC(C)CCOc1ccc(-c2no[n+]([O-])c2C#N)cc1 [Compound 18]
IC50 of SjTGR [1]: did not inhibit SjTGR | pIC50 [1]: < 4.70 | killing at 25 µM [2, 4]: 75% | killing at 50 µM [2, 4]: 100% | killing at 100 µM [2, 4]: 100% | mortality at 25 µM ([2]; 24 h): > 75% | killing at 25 µM [2, 5]: 87.5% | killing at 50 µM [2, 5]: 100% | killing at 100 µM [2, 5]: 100% | killing at 25 µM [2, 6]: 100% | killing at 50 µM [2, 6]: 100% | killing at 100 µM [2, 6]: 100% | mortality at 25 µM ([2]; 72 h): 100% | Killing activity 24hr ([2]; 10 μM, 24 h): 16.7%D | Killing activity 48hr ([2]; 10 μM, 48 h): 16.7%D | Killing activity 72hr ([2]; 10 μM, 72 h): 50.0%D | killing at 2 µM [3, 4]: 24.1% | killing at 5 µM [3, 4]: 33.8% | killing at 50 µM [3, 4]: 52.4% | killing at 2 µM [3, 5]: 29.9% | killing at 5 µM [3, 5]: 40% | killing at 50 µM [3, 5]: 88.1% | killing at 2 µM [3, 6]: 35.6% | killing at 5 µM [3, 6]: 47.5% | killing at 50 µM [3, 6]: 100% | Killing activity 24hr ([3]; 10 μM, 24 h): 36.6%D | Killing activity 48hr ([3]; 10 μM, 48 h): 42.7%D | Killing activity 72hr ([3]; 10 μM, 72 h): 42.7%D
